Our source for the inhibition values is patent US20250082598A1, “Melafenoxate, 2-(1-adamantylamino)ethyl 2-(4-chlorophenoxy)acetate and derivatives thereof for treating circadian rhythm sleep disorders with neurodegenerative diseases such as Alzheimer's disease” (NLS Pharmaceutics AG, priority 2021, published 2025).

Molecules are shown by their SMILES.

The target in one test is T1, MT1 (MLT1a) (h) (Homo sapiens, UniProt P48039).
T1 construct: CEREP (Eurofins, France)
Description: Radioligand binding, MT1 (MLT1a) (h). As to conditions: 10^−5 M; agonist radioligand; % inhibition of control specific binding. As to the method:
(§1) Melafenoxate was tested at 10^−5 M, calculated as a % inhibition of control specific binding of a radioactively labeled ligand specific for each target.
(§2) This binding profile panel was broadly defined with roughly an equal number of selective, central and peripheral therapeutically relevant targets, including native animal tissues, radioligands and specific enzymes involved in cell cycle regulation in accordance with Eurofins Standard Operating Procedure.
(§3) For radioligand binding experiments, the half maximal inhibitory concentration (IC50) and the half maximal effective concentration (EC50) values were determined (via computer software) by nonlinear regression analysis of the competition curves using Hill equation curve fitting. The inhibition constants (Ki) were calculated using the Cheng-Prusoff equation (Ki=IC50/(1+(L/KD)), where L is the concentration of radioligand in the assay, and KD is the affinity of the radioligand for the receptor.^49
(§4) The results are expressed as a % control specific binding ([measured specific binding/control specific binding]×100) and as a % inhibition of control specific binding (100−[(measured specific binding/control specific binding)×100]) obtained in the presence of the test compounds. […]

Another test deals with T2, DAT (h) (Homo sapiens, UniProt Q01959).
T2 construct: Eurofins
The experiment in a line: Radioligand binding, DAT (h). The note with it: 10^−5 M; antagonist radioligand. The method, then: as §1, §2, §3, §4

The target in another test is T3, 5-HT7 (h) (Homo sapiens, UniProt P34969).
T3 construct: CEREP (Eurofins, France)
The experiment in a line: Radioligand binding, 5-HT7 (h). As to conditions: 10^−5 M; agonist radioligand. The method, then: as §1, §2, §3, §4

T2 sequence (Q01959 whole entry): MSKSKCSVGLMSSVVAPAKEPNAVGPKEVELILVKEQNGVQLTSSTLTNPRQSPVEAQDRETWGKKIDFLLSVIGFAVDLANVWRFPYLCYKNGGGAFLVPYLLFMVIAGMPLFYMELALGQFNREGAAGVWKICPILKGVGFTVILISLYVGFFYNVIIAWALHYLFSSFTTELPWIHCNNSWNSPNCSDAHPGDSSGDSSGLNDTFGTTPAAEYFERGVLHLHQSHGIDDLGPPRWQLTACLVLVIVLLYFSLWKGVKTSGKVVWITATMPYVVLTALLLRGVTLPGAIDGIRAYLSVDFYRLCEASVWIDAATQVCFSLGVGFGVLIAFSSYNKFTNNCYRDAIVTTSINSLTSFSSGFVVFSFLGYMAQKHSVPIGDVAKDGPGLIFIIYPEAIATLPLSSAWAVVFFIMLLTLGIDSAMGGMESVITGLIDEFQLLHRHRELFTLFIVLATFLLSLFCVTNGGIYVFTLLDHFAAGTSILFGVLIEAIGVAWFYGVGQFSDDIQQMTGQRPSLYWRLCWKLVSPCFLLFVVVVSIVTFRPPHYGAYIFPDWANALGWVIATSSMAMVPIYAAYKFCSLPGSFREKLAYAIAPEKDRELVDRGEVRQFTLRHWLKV
T1 sequence (P48039 whole entry): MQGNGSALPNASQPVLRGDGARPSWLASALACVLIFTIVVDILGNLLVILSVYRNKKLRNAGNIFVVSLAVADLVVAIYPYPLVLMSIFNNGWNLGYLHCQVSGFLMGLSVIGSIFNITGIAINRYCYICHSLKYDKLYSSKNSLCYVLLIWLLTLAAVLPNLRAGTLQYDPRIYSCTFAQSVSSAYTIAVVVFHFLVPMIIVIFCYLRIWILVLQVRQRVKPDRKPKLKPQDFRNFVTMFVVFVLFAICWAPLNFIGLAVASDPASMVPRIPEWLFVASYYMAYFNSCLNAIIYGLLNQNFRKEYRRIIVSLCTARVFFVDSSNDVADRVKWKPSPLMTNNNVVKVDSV
T3 sequence (P34969 whole entry): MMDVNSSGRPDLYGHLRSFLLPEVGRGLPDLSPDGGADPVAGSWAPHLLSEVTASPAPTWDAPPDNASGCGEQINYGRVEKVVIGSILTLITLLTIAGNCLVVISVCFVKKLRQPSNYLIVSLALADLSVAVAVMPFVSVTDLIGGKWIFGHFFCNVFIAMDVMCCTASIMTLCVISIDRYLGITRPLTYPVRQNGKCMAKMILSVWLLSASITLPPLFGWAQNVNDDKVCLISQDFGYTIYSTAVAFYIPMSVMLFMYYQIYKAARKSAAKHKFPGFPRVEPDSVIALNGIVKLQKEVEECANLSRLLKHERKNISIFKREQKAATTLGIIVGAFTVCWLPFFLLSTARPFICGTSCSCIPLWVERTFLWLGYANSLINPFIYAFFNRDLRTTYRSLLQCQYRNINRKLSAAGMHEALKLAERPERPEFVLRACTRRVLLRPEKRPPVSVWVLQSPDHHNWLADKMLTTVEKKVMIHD

Turning to `O=C(COc1ccc(Cl)cc1)OCCNC12CC3CC(CC(C3)C1)C2` [Melafenoxate, 2-(1-adamantylamino)ethyl 2-(4-chlorophenoxy)acetate], the inhibition (usually the share of the control response that was lost under treatment) at 10 µM at MT1 (MLT1a) (h) turned out to be 75.2%; at DAT (h) it was 20.9%; at 5-HT7 (h) it was 12.8%.
